The text below walks through data of patent US20220251143A1, “NON-HYDROLYZABLE NON-CLEAVABLE, STABLE LINKERS FOR PRECISION THERAPEUTICS AND USES THEREOF” (THE TRUSTEES OF COLUMBIA UNIVERSITY IN THE CITY OF NEW YORK, priority 2019, published 2022).

Bridge positions count the residues as written; N and C are the ends. Square brackets hold non-standard residues; d marks the D form. Peptide text beside a SMILES is read from it. * marks the point of attachment. DM1Mal(CH2)2CO = COc1cc2cc(c1Cl)N(C)C(=O)C[C@H](OC(=O)[C@H](C)N(C)C(=O)CCSC1CC(=O)N(CCC(=O)*)C1=O)[C@]1(C)O[C@H]1[C@H](C)[C@@H]1C[C@@](O)(NC(=O)O1)[C@H](OC)/C=C/C=C(\C)C2; X1 = COc1cc2cc(c1Cl)N(C)C(=O)C[C@H](OC(=O)[C@H](C)N(C)C(=O)CCSC1CC(=O)N(CCCC(=O)*)C1=O)[C@]1(C)O[C@H]1[C@H](C)[C@@H]1C[C@@](O)(NC(=O)O1)[C@H](OC)/C=C/C=C(\C)C2; d2Nal = N[C@H](Cc1ccc2ccccc2c1)C(=O)O; PEG2 = NCCOCCOCCC(=O)O

Data set [1] deals with SSTR2 expression in NEC3 (H727) cells. Kind of data set: SSTR2 expression by quantitative PCR, NEC3. Particulars: within 72 hours, 1 or 3 nanomolar romidepsin or 1 micromolar entinostat. The format is cell-based. As to the method: (§1) Three neuroendocrine cell lines, NEC1 (NCI—H82), NEC2 (Kelly), and NEC3 (H727), were incubated in media containing 1 or 3 nanomolar romidepsin (EA1) or 1 micromolar entinostat (EA2) or without drug at 37° C. under 5% CO2 for 72-96 hours after which time cellular RNA was harvested and expression of the SSTR determined.
(§2) Somatostatin receptor expression was measured by quantitative PCR using primers for SSTR2.

Data set [2] deals with SSTR2 expression in NEC1 (NCI-H82) cells. Kind of data set: SSTR2 expression by quantitative PCR, NEC1. The format is cell-based. Particulars: within 72 hours, 1 or 3 nanomolar romidepsin or 1 micromolar entinostat. As to the method: as §1, §2
Data set [3] deals with SSTR2 expression in NEC2 (Kelly) cells. The experiment in a line: SSTR2 expression by quantitative PCR, NEC2. The format is cell-based. Particulars: within 72 hours, 1 or 3 nanomolar romidepsin or 1 micromolar entinostat. As to the method: as §1, §2
Data set [4] has as its system neuroendocrine prostate cancer (NEPC) organoids. The following applies: three days. From the text:
A neuroendocrine prostate cancer (NEPC) cell line was used and NEPC organoids were generated.
CellTiter-Glo Luminescent Cell Viability assay measured viable cells. The percentage of viable cells after drug treatment compared to vehicle control (DMSO) was used to generate a dose—response curve.

A short description of data set [5]: Stability of aqueous solutions at 4° C. The format is physicochemical. Particulars: preliminary studies.
From the text: (§3) Conjugate composition comprising DM1 and lanreotide and the non-hydrolyzable, non-cleavable, stable linker GMBS was synthesized as shown in Scheme 1. Briefly, the primary amine of lanreotide was protected with Boc20. The reaction of the second amine group of the protected lanreotide with the NHS ester of GMBS gave the intermediate GMBS-lanreotide. The reaction of the maleimide of GMBS-lanreotide with the sulfhydryl group (—SH) of DM1 gave a protected conjugate. De-protection of the Boc with TFA provided the final product. All compounds were fully characterized and purified to >95% as determined by NMR and LC-MS analyses. The purity of the compound for animal studies is >98%.
as §3, with “PEG” for “GMBS”, “2.” for “1.”, “PEG-lanreotide.” for “GMBS-lanreotide.”, “PEG-lanreotide” for “GMBS-lanreotide”

For `Nc1ccccc1NC(=O)c1ccc(CNC(=O)OCc2cccnc2)cc1` [entinostat], the “induction of the somatostatin receptor (SSTR2 expression)” value in data set [1], in data set [2] and in data set [3] was “Induction of the somatostatin receptor” in each case.
On to `COc1cc2cc(c1Cl)N(C)C(=O)C[C@H](OC(=O)[C@H](C)N(C)C(=O)CCSC1CC(=O)N(CCC(=O)NCCOCCOCCC(=O)N[C@H](Cc3ccc4ccccc4c3)C(=O)N[C@H]3CSSC[C@H](C(=O)N[C@H](C(N)=O)[C@@H](C)O)NC(=O)[C@H](C(C)C)NC(=O)[C@H](CCCCN)NC(=O)[C@@H](Cc4c[nH]c5ccccc45)NC(=O)[C@H](Cc4ccc(O)cc4)NC3=O)C1=O)[C@]1(C)O[C@H]1[C@H](C)[C@@H]1C[C@@](O)(NC(=O)O1)[C@H](OC)/C=C/C=C(\C)C2` (stereo partly shown) [DM1-PEG-Lanreotide] ({DM1Mal(CH2)2CO-PEG2}-[d2Nal]CY[dW]KV[dC]T-NH2; disulfide 2-7), for which the “effectiveness compared with conjugate with cleavable, hydrolysable linker (MCC)” value in data set [4] (NEPC organoids) is “more effective”. Besides, the “activity in NEPC organoids (viable cells)” value in data set [4] (1 uM to 0.00046 uM) was “effective and active”. In addition, the “stability of aqueous solutions” value in data set [5] is “stable at 4 °C for months”.
`COc1cc2cc(c1Cl)N(C)C(=O)C[C@H](OC(=O)[C@H](C)N(C)C(=O)CCSC1CC(=O)N(CCCC(=O)N[C@H](Cc3ccc4ccccc4c3)C(=O)N[C@H]3CSSC[C@H](C(=O)N[C@H](C(N)=O)[C@@H](C)O)NC(=O)[C@H](C(C)C)NC(=O)[C@H](CCCCN)NC(=O)[C@@H](Cc4c[nH]c5ccccc45)NC(=O)[C@H](Cc4ccc(O)cc4)NC3=O)C1=O)[C@]1(C)O[C@H]1[C@H](C)[C@@H]1C[C@@](O)(NC(=O)O1)[C@H](OC)/C=C/C=C(\C)C2` (stereo partly shown) [DM1-GMBS-Lanreotide] (X1-[d2Nal]CY[dW]KV[dC]T-NH2; disulfide 2-7): in data set [5], the “stability of aqueous solutions” value was “stable at 4 °C for months”.
